Measurements from US10493077B2, “Fused imidazo-piperidine JAK inhibitor compound” (THERAVANCE BIOPHARMA R&D IP, LLC, priority 2017, dated 2019).

What was measured:
Tyk2 = biological target: T1, Tyk2 (Homo sapiens, UniProt P29597); assay: LanthaScreen JAK biochemical assay, Tyk2; settings: read-out: Tyk2 pKi (converted)
T1 construct: GST; purchased Life Technologies
Method: A panel of four LanthaScreen JAK biochemical assays (JAK1, 2, 3 and Tyk2) were carried in a common kinase reaction buffer (50 mM HEPES, pH 7.5, 0.01% Brij-35, 10 mM MgCl2, and 1 mM EGTA). Recombinant GST-tagged JAK enzymes and a GFP-tagged STAT1 peptide substrate were obtained from Life Technologies.
Serially diluted compound was pre-incubated with each of the four JAK enzymes and the substrate in white 384-well microplates (Corning) at ambient temperature for 1 h. ATP was subsequently added to initiate the kinase reactions in 10 μL total volume, with 1% DMSO. […] The plates were allowed to incubate at ambient temperature for 1 h before being read on the EnVision reader (Perkin Elmer). Emission ratio signals (520 nm/495 nm) were recorded and utilized to calculate the percent inhibition values based on DMSO and background controls.
For dose-response analysis, percent inhibition data were plotted vs. compound concentrations, and IC50 values were determined from a 4-parameter robust fit model with the Prism software (GraphPad Software). Results were expressed as pIC50 (negative logarithm of IC50) and subsequently converted to pKi (negative logarithm of dissociation constant, Ki) using the Cheng-Prusoff equation.

[1] = test system: IL-6 stimulated CCL2 (MCP-1) in human PBMCs; assay: Cellular JAK potency assay: inhibition of IL-6 stimulated CCL2 (MCP-1) in human PBMCs; type: cell-based; settings: PBMC, 48 h stimulation, read-out: pIC50, inhibition of IL-6 stimulated CCL2 (MCP-1) (converted)
Method: The potency of the test compound for inhibition of interleukin-6 (IL-6) stimulated CCL2 (MCP-1) production was measured in human peripheral blood mononuclear cells (PBMCs) isolated from human whole blood (Stanford Blood Center). Because IL-6 signals through JAK, this assay provides a distal measure of JAK cellular potency.
(1) The protocol of Assay 3 paragraph (1) was followed up to the incubation with test compounds. In the present assay, after test compounds were added to wells and incubated, IL-6 (R&D Systems; final concentration 10 ng/ml) in pre-warmed assay media (50 μL) was added.
(2) After cytokine stimulation for 48 h, cells were centrifuged at 500 g for 5 min and supernatants were removed and frozen at −80° C. To determine the inhibitory potency of the test compound in response to IL-6, supernatant CCL2 (MCP-1) concentrations were measured via ELISA (R&D Systems). IC50 values were determined from analysis of the inhibition curves of concentration of CCL2/MCP-1 vs compound concentration. Data are expressed as pIC50 (negative decadic logarithm IC50) values.

T1 sequence (P29597 whole entry): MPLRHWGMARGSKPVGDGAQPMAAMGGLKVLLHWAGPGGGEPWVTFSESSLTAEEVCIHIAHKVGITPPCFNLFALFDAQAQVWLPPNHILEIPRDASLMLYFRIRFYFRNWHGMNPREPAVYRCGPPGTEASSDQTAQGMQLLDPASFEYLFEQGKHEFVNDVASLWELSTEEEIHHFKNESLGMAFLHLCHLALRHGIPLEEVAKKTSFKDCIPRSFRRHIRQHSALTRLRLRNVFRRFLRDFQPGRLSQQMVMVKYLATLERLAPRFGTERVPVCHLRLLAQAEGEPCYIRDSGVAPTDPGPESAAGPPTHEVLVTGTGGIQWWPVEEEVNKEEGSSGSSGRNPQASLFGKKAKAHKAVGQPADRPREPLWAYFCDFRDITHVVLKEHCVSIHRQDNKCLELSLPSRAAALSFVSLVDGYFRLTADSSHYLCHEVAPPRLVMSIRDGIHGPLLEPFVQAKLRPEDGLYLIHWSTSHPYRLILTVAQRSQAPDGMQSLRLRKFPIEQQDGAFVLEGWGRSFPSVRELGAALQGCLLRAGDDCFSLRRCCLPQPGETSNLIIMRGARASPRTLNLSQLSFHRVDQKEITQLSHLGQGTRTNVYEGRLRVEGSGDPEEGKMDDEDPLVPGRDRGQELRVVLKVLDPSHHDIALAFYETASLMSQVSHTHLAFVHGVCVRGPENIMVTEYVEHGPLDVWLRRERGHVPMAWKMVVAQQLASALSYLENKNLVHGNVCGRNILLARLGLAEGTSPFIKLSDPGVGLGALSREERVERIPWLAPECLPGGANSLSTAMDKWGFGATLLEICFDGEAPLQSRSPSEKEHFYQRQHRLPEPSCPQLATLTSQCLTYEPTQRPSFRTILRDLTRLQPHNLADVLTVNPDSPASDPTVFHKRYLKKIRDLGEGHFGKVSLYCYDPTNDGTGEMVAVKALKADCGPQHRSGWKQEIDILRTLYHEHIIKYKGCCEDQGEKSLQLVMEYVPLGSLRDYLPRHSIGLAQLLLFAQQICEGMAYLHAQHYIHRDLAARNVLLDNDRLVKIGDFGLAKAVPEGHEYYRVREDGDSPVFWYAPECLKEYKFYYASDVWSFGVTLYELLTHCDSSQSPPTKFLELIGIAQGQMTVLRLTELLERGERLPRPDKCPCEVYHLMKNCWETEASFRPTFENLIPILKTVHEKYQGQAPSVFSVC

CCc1cc(O)c(F)cc1-c1cc(F)c2c(-c3nc4c([nH]3)CCN(C(=O)CN3CCOCC3)C4)n[nH]c2c1 [Compound 1, 1-(2-(6-(2-ethyl-5-fluoro-4-hydroxyphenyl)-4-fluoro-1H-indazol-3-yl)-1,4,6,7-tetrahydro-5H-imidazo[4,5-c]pyridin-5-yl)-2-morpholinoethan-1-one]
Ki (Tyk2): 2 nM | IC50 [1]: ~398 nM
